Results from patent US6803386B2, “Prostacyclin derivative containing compositions and methods of using the same for the treatment of cancer” (United Therapeutics Corporation, priority 2002, dated 2004).
pIC50: −log10 of the molar value.

Tests used:
[1] = test system: human amelanotic melanoma cell line (LOX)
Procedure: A live cell toxicity assay marketed as LIVE/DEAD Viability/Cytotoxicity Kit by Molecular Probes, Inc. of Eugene, Oreg., was obtained for the test. The assays were carried out in accordance with the manufacturers' instructions using the LOX cells. The LOX cells (10^4/well) were cultured and incubated in a carbon dioxide incubator at 37° C. overnight and then gently washed with PBS.
Calcein Am (2 μM), a fluorescent dye available from Molecular Probes, Inc. for staining live cells, was added to the LOX cells. The Calcein-stained LOX cells were incubated at room temperature for about an hour. […] A positive fluorescence signal from the assay indicates the presence of viable cells in the test sample with the strength of the signal being proportional to the number of viable cells present.
The live cell toxicity assay was carried out four times (n=4) for each test compound.

[2] = test system: human amelanotic melanoma cell line (LOX); test: Collagen degradation inhibition assay (fluorescent-labeled Type I collagen matrix seeded with LOX cells); assay type: cell-based; conditions: LOX cells on Type I collagen matrix, dosages 10^−12 to 10^−3 M, n=4
[3] = test system: human amelanotic melanoma cell line (LOX); test: Apoptosis assay (Vybrant Apoptosis Assay Kit #4, YO-PRO); assay type: cell-based; conditions: LOX cells, overnight incubation; dosages 10^−12 to 10^−3 M; n=4
Procedure: An apoptosis assay marketed as Vybrant Apoptosis Assay Kit #4 from Molecular Probes, Inc., was obtained for the test. […] The apoptosis assay was performed four times (n=4) for each test compound.

## CCCCC[C@@H](O)CC[C@H]1[C@H](O)CC2Cc3c(cccc3OCC(=O)O)C[C@@H]21 (stereo partly drawn) [compound of Formula II, 9-Deoxy-2′,9α-methano-3-oxa-4,5,6-trinor-3,7-(1′,3′-interphenylene)-13,14-dihydro-PGF1]
[1]
  dosage at which cell toxicity / inhibited cell viability was exhibited: over 10^−6 M
[2]; Homo sapiens
  pIC50: 8.00
[2]
  dosage at which collagen degradation activity by LOX cells was inhibited (lowest effective dosage): 2.5 nM
[3]
  dosage at which a marked increase in the incidence of apoptosis was seen: over 10^−4 M
